pIC50: −log10 of the molar value. Where two headings read alike, the source gives them in different places.
Experiments:
[1] = system: mature male hooded rats (Long-Evans strain); experiment: animal model of anxiety based on the Geller-Seifter conflict test; type: in vivo; conditions: for Total Punished Responses, Test: four rats
Source text: The compounds of the present invention are new chemical substances which are also useful as pharmaceutical agents for the treatment of anxiety, i.e., anxiolytic agents. The antianxiety activity of a representative compound showing such activity for the compounds of the Formula I of the present invention is established by the use of an animal model of anxiety based on the Geller-Seifter conflict test described in Psychopharmacologia 1:482 (1960). Particularly the test follows initial shaping of response, an experimental conflict is induced, with animals trained until stable performance is established. Each animal serves as his own control. A description of the test is as follows:
Subjects: Mature male hooded rats (Long-Evans strain) 300-350 g body weight.
Apparatus: The experimental chamber consists of an inner test compartment with a lever mounted in one wall, a grid floor, an automatic feeding device, and a speaker. This chamber is enclosed by a sound insulated cubicle. Shock is provided by a LVE Model 1531 Constant Current SHocker. White (masking) noise is supplied by a LVE Model 1524 Noise Generator. A tone is produced by a LVE Model 1664 4.5 KC Tone Generator. All events and recordings are automatic and are programmed with appropriate electric timers and relay devices.
Procedure: Variable interval (VI)=two-minute; trial periods=four; shock=0.6 to 0.8 ma; food reward=Borden's Sweetened Condensed Milk diluted two parts water to one part milk; animals are deprived to 70% of their free feeding weight and are 23 hours starved; session length=one hour and 12 minutes.
The conflict is induced in the following manner: hungry rats are conditioned to press a lever to obtain a food reward. Reinforcement is contingent upon a lever press and occurs at variable intervals on the average of once every two minutes--VI two-minute (See Ferster; C. B., and Skinner, B. F., "In Schedules of Reinforcement, " Appleton-Century-Crofts,New York, 1957).
Spaced at regular intervals throughout the experimental session are four three-minute periods. During these trial periods a tone signals that every lever press will be food reinforced (CRF) and simultaneously punished by a painful electric foot shock.
In other words, food-deprived rats are trained to depress a lever in order to obtain food (sweetened condensed milk). Normally, the rats perform on a variable interval (VI) schedule on which a lever press results in food delivery on the average of once every two minutes; the time between successive periods of food availability is varied continuously such that animals respond at low but steady rates to obtain occasional access to food. After animals perform for 12 minutes on this schedule the house lights are extinguished and two small stimulus lights are illuminated, signaling the availability of food for each depression of the lever during a three minute trial period. During the trial, each depression of the lever also results in the delivery of mild electric shock (0.8 ma, 0.25 second duration) delivered through the grid floor (punishment). Thus, an approach-avoidance conflict is established with associated anxiety: food is readily available for each response, but each respone is punished (see Miller, N. E., "Some Recent Studies of Conflict Behavior and Drugs," Am. Pharmacologist, 16: 12, 1961). The scheduled used in our test employed four successive trials, each preceded by a 12-minute period during which the food-reinforced VI was in effect.
During sessions in which no drug is administered, rats normally respond at steady rates on the VI component but emit very few responses during the punished trial period.
The total number of punished responses made by the four subjects in the pretest and test sessions for the noted compound are as follows.
The pretest responses are cummulative responses emitted during the three minute tests from a previous nondrug session. […]

Swiss-Webster male mice = experiment: Mouse Activity and Screen Test Procedure (MAST); type: in vivo; conditions: ip, 1 h, intraperitoneal, one hour prior to testing, active = rating A at 100 mg/kg or less, read-out: Dose at which an overall dose rating of A was obtained
Source text: The compounds of the present invention are new chemical substances which are useful as pharmaceutical agents for the treatment of psychoses such as, for example, schizophrenia. The antipsychotic activity of representative compounds of the invention was established by the Mouse Activity and Screen Test Procedure (MAST) described below:
ANIMALS: Nine unfasted Swiss-Webster male mice (Buckberg Labs) weighing 20-30 g are equally divided into three groups for each drug dose to be tested. That is, data for each dose level was generated by three separate groups of three mice each.
DRUGS: A minimum of three dose levels (10, 30, and 100 mg/kg) are tested for each drug. Treatments are administered intraperitoneally one hour prior to testing. All dosages are calculated as parent compound and given in volumes of […]. Compounds are dissolved or suspended in 0.2% Methocel. Control animals are injected with Methocel.
TESTING: A two-part testing procedure is started one hour postinjection. First, the screen test is performed (see Pharmac Biochem Behav 6, 351-353, 1977). Briefly, this test consists of placing mice on individual wire screens which are then rotated 180° at the start of a 60-second observation period. The number of mice falling off the inverted screen is recorded.
Immediately following the screen test, the final phase of testing is initiated by placing each group of three mice in one actophotometer (Life Sciences, 22, 1067-1076, 1978). The actophotometer consists of a cylindrical chamber whose center is occupied by another cylinder which contains the illumination for six photocells located on the perimeter of the chamber. Six light-beam interruptions equal one count. Locomotor activity is recorded by computer at ten-minute intervals for 60 minutes.
DATA: The data obtained from the screen test are expressed as percent of mice falling off the screen. Data derived from locomotor activity of drug-treated mice are compared to the activity of vehicle-treated animals and are expressed as percent inhibition of spontaneous locomotion. All percentages reported for inhibition of locomotion are based upon data accumulated for one hour. Both phases of testing are graded: A=60-100%; C=31-59%; and N=0-30%. An overall dose rating is obtained by the following criteria. […]
______________________________________
Inhibition of Screen Test Dose
Locomotion rating with Failure Rating
Utilizing this procedure, an overall dose rating of A was obtained for the noted compounds at the indicated dose as reported in Table 1.

dopamine receptors = dopamine receptors (Rattus norvegicus, UniProt P61169); experiment: [3H] haloperidol binding assay (HRBA); parameters: species or system Long-Evans hooded rats; conditions: displacement of [3H] haloperidol (0.6 nM), rat striatal membranes, pH 7.6, 25° C., 40 minutes
dopamine receptors, sequence (P61169 whole entry): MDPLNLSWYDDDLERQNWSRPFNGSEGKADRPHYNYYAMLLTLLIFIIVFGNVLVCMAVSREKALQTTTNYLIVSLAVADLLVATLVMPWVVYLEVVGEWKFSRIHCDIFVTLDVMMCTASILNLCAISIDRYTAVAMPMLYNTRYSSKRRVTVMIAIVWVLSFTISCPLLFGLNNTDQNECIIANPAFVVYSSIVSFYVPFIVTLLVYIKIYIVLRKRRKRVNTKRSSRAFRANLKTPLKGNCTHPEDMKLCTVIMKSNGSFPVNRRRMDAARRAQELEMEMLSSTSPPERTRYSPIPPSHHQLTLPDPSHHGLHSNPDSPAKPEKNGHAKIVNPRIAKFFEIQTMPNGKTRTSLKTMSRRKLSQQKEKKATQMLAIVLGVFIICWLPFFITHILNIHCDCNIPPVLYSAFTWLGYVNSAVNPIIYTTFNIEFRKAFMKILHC
Method: [^3 H] Haloperidol Binding Assay. The relative affinities of compounds for dopamine receptors were evaluated on the basis of their ability to displace [^3 H] haloperidol from striatal membranes prepared from Long-Evans hooded rats. Rats were decapitated; the brains were removed, and the corpus striata were dissected. The corpus striata were homogenized in 40 volumes of […] Tris buffer (pH 7.6) and centrifuged. Pellets were rehomogenized in 50 volumes of the same buffer and used for the binding assay. Incubations were carried out in 10 ml of […] Tris-HCl buffer (pH 7.6) containing 2 mg/ml of original wet tissue weight of homogenate, 100 μl of test agent or solvent, and 0.6 nM of [^3 H] haloperidol. Nonspecific binding was determined in the presence of 0.1 μM (+)-butaclamol. Samples were incubated in reciprocating water bath at 25° C. for 40 minutes. Incubation was terminated by rapid filtration under reduced pressure through glass fiber filters (Whatman GF/B). The filters were rinsed three times with 10 ml of Tris-HCl buffer. The filters were placed in 10 ml of scintillation coctail (Beckman Ready-Solv HP) and shaken for one hour. Radioactivity retained on the filter was determined by liquid scintillation spectrophotometry. Compounds were initially evaluated at 10 nM. IC50 s when determined were calculated from a nonlinear computer curve, fit on the data from four or more concentrations, each done in triplicate.

Q: Which “responding during trial periods” value ([1]; 27.5 mg/kg PO (no increase)) does the source give for `O=c1ccc2ccc(OCCCN3CCN(c4ncccn4)CC3)cc2o1` [7-[3-[4-(2-pyrimidinyl)-1-piperazinyl]propoxy]-2H-1-benzopyran-2-one] here?
A: Its value is “not at 27.5 mg/kg PO”.

Q: And the “Total Punished Responses, Test” value ([1]; 27.5 mg/kg PO, Pretest (nondrug session) 39)?
A: The value was 44.

Q: What about the “Total Punished Responses, Test” value ([1]; 55 mg/kg PO, Pretest (nondrug session) 78) of the same compound?
A: The value was 147.

Q: And the “rats with increases in punished responding” value ([1]; 80 mg/kg)?
A: The value was “four of four rats”.

Q: What about the “Total Punished Responses, Test” value ([1]; 80 mg/kg PO, Pretest (nondrug session) 23) of the same compound?
A: Its value is 77.

Q: What about the “rats with increases in punished responding” value [1]; 55 of the same compound?
A: Its value is “three of four rats”.

Q: And the gross sedation ([1]; 55 and 80 mg/kg PO)?
A: Its gross sedation is “notable absence of gross sedation”.

Q: What about the “responding during trial periods” value ([1]; 55 and 80 mg/kg PO) of the same compound?
A: Its value is “increased responding during trial periods”.

Q: And the “responding during the VI component” value ([1]; 55 and 80 mg/kg PO, unpunished responding)?
A: Its value is “not accompanied by decreased responding during the VI component”.

Q: For `CSc1ccc2c(c1)N(CCC1CCCCN1C)c1ccccc1S2` (stereo not drawn) [Thioridazine, reference compound], which minimal effective dose (Swiss-Webster male mice) is on record?
A: Its minimal effective dose is 10 mg/kg.

Q: Which minimal effective dose (Swiss-Webster male mice) does the source give for `O=c1ccc2ccc(OCCCN3CCN(c4ccccc4)CC3)cc2o1` [drawing 15] here?
A: Its minimal effective dose is 3 mg/kg.

Q: For `Cc1cc(=O)oc2cc(OCCCN3CCN(c4ccccc4)CC3)ccc12` [drawing 16], which minimal effective dose (Swiss-Webster male mice) is on record?
A: The minimal effective dose was 1 mg/kg.

Q: `O=c1ccc2ccc(OCCCN3CCN(c4ncccn4)CC3)cc2o1` [drawing 17] was tested. Which minimal effective dose (Swiss-Webster male mice) did it give?
A: Its minimal effective dose is 3 mg/kg.

Q: Which minimal effective dose (Swiss-Webster male mice) does the source give for `O=c1ccc2ccc(OCCCN3CC=C(c4ccccc4)CC3)cc2o1` [drawing 18] here?
A: The minimal effective dose was 1 mg/kg.

Q: `O=c1ccc2ccc(OCCCN3CCN(c4ccccc4)CC3)cc2o1` [drawing 20] was tested. Which pIC50 (dopamine receptors; read-out: IC50) did it give?
A: Its pIC50 is 7.82.

Q: How did the pIC50 (dopamine receptors) turn out when `Cc1cc(=O)oc2cc(OCCCN3CCN(c4ccccc4)CC3)ccc12` [drawing 21] was run?
A: The pIC50 was 7.30.

Q: `O=c1ccc2ccc(OCCCN3CCN(c4ncccn4)CC3)cc2o1` [drawing 22] was tested. Which pIC50 (dopamine receptors; read-out: IC50) did it give?
A: Its pIC50 is 6.03.

Q: `O=c1ccc2ccc(OCCCN3CC=C(c4ccccc4)CC3)cc2o1` [drawing 23] was tested. Which pIC50 (dopamine receptors) did it give?
A: The pIC50 was 7.80.
